Test results: patent US8563473B2, “Aqueous herbicidal concentrates of auxinic carboxylic acids with reduced eye irritancy” (Dow AgroSciences, LLC., priority 2010, dated 2013)

How the values were obtained:
susceptible plants = settings: concentrate diluted in water, applied postemergently; disclosed in WO 2008/106107 A1; cited from earlier work
[1] = Cold temperature stability / storage of aqueous concentrates; type: physicochemical; settings: […] salt solution ([…] acid equivalent) stored at −10° C. for 14 days

Row | Substance | Weed control (susceptible plants) | Crystallization on storage [1]
1 | choline salt of 2,4-D [2,4-D choline] | good weed control | –
2 | triclopyr choline salt | – | did not show any crystallization
